# Reference: publication PMC13422867, “An orally available PfPKG inhibitor blocks Plasmodium’s infection of the liver” (PLOS Pathogens, 2026)
# Columns and labels:
# P. falciparum 3D7 = experiment: Asexual blood stage growth inhibition, SYBR Green I, 72 h; assay type: cell-based; conditions: Plasmodium falciparum, mean (standard error) of 3 biological replicates
# Procedure: (§1) Asexual blood stage P. falciparum strains, including 3D7 and drug-resistant field isolates, were cultured using standard conditions in RPMI 1640 with 0.5% Albumax as described previously. EC₅₀ values were determined using a SYBR Green I fluorescence assay after 72 h of compound exposure. EC50 values were derived by nonlinear regression in GraphPad Prism version 10.
# P. falciparum 7G8 = experiment: as above; assay type: cell-based; conditions: Plasmodium falciparum, mean (standard error) of 3 biological replicates
# Procedure: as §1
# P. falciparum TM90_C2B = experiment: as above; assay type: cell-based; conditions: Plasmodium falciparum, mean (standard error) of 3 biological replicates
# Procedure: as §1
# [1] = test system: P. falciparum sporozoites; experiment: Sporozoite infection of primary human hepatocytes, high-content imaging; assay type: cell-based, Plasmodium falciparum; conditions: Plasmodium falciparum, Hepatocyte
# Procedure: Liver stage antimalarial activity was evaluated using sporozoites from P. falciparum (NF54 strain) and P. cynomolgi bastianellii (B strain). P. falciparum-infected Anopheles stephensi mosquitoes were reared at WRAIR, while P. cynomolgi-infected Anopheles dirus mosquitoes were obtained from the Armed Forces Research Institute of Medical Sciences (AFRIMS), Thailand. Sporozoites were isolated by dissecting salivary glands under sterile conditions, followed by gentle mechanical disruption. Freshly isolated sporozoites were immediately used for hepatocyte infection. […]
# Cells were fixed using 4% paraformaldehyde for 20 minutes at room temperature, followed by three PBS washes, and stored at 4°C until further processing. Parasite detection was performed using species-specific primary antibodies, with P. cynomolgi parasites labeled using a mouse monoclonal anti-Plasmodium GAPDH antibody (1.6 μg/mL, European Malaria Reagent Repository) and P. falciparum parasites detected using a rabbit polyclonal anti-PfHSP70 antibody (1:70 dilution, LS Bio, USA). […]
# High-content imaging was performed using the Operetta CLS system (Revvity) and image analysis was performed with Harmony software version 4.9 (Revvity, Waltham, MA, USA). Images were acquired at 10x or 20x magnification using DAPI and TRITC fluorescence channels. […]
# [2] = Cellular cytotoxicity, hepatocyte nuclear counts; assay type: cell-based, simian; conditions: simian, primary cryopreserved simian hepatocytes (lot OQB); cellular cytotoxicity
# Description: (§2) Primary cryopreserved hepatocytes were selected based on host-parasite compatibility: primary simian hepatocytes (lot OQB) for P. cynomolgi and human hepatocytes (lot BGW) for P. falciparum (BioIVT Inc., Baltimore, MD, USA). Cells were thawed according to the manufacturer’s protocol and seeded into 384-well collagen-coated assay plates (Greiner Bio-One, Monroe, NC, USA) using InVitroGro CP plating medium (BioIVT). Seeding densities were optimized for uniform monolayer formation, and hepatocytes were allowed to adhere for 24–48 hours before infection. Sporozoites were added at a 1:1.1 hepatocyte-to-sporozoite ratio within 48 hours post-seeding. Automated robotic systems were used for media changes and compound additions to ensure assay consistency and minimize variability associated with manual pipetting.
# Test compounds (PfPKG inhibitors) and assay drug controls (KDU-691 and tafenoquine) were solubilized in DMSO or PBS and serially diluted into 8- or 12-point, 2- or 3-fold series, achieving final assay concentrations ranging from 20 µM to 0.019 µM. Compounds were introduced using a calibrated pin tool controlled by robotic arms (V&P Scientific), ensuring a 1:1000 dilution into assay wells. Media were replenished daily with fresh drug-containing HCM. Compounds were added 1-hour post-infection (p.i.) (day 0) and administered daily for 3 days. Cells were fixed on day 6 p.i. of P. falciparum culture and day 8 for P. cynomolgi infected culture, coinciding with liver stage schizont maturation.
# (§3) High-content imaging was performed using the Operetta CLS system (Revvity) and image analysis was performed with Harmony software version 4.9 (Revvity, Waltham, MA, USA). Images were acquired at 10x or 20x magnification using DAPI and TRITC fluorescence channels. Following the established protocol, parasites were classified as hypnozoites or schizonts based on fluorescence intensity (mean and maximum), morphological features (cell roundness and size), and segmentation criteria. Hepatocyte nuclei were identified using Hoechst 33342 staining. Background signal was captured in uninfected, stained wells and subjected to the same parasite detection algorithm. Estimate erroneous parasite counts were then subtracted from infected well counts. Hepatocyte viability was determined by quantifying nuclear counts per well using Hoechst stain intensity thresholds. […] An in-house built Python-based image analysis script identified parasite objects using predefined fluorescence intensity thresholds. […] Parasite size was quantified by calculating the average object area (µm²) of validated parasite structures per well. […] Dose-response inhibition and IC50 were calculated relative to in-plate negative controls (DMSO-treated wells). […]
# [3] = test system: primary human hepatocytes; experiment: Cellular cytotoxicity, hepatocyte nuclear counts; assay type: cell-based; conditions: primary human hepatocytes
# Description: as §2
# (§4) Test compounds (PfPKG inhibitors) and assay drug controls (KDU-691 and tafenoquine) were solubilized in DMSO or PBS and serially diluted into 8- or 12-point, 2- or 3-fold series, achieving final assay concentrations ranging from 20 µM to 0.019 µM. […]
# as §3, with “Hepatocyte nuclei were identified using Hoechst 33342 staining. Background signal was captured in uninfected, stained wells and subjected to the same parasite detection algorithm. Estimate erroneous parasite counts were then subtracted from infected well counts.” left out
# [4] = Cellular cytotoxicity, hepatocyte nuclear counts; assay type: cell-based, human; conditions: human, primary cryopreserved human hepatocytes (lot BGW); cellular cytotoxicity
# Description: as §2, §4
# as §3, with “Hepatocyte nuclei were identified using Hoechst 33342 staining. Background signal was captured in uninfected, stained wells and subjected to the same parasite detection algorithm. Estimate erroneous parasite counts were then subtracted from infected well counts.” left out
# [5] = test system: P. berghei sporozoites (PbLuc-GFP); experiment: In vivo chemoprotective efficacy against sporozoite liver infection; parameters: species or system Plasmodium berghei in mice; conditions: 10 mg/kg x 3; for Prepatent period mean ± sd: blood stages by flow cytometry
# Procedure: In the first experiment, mice were administered three doses, intravenously (IV) or orally (PO), of compound (10 mg/kg) - two prior to sporozoite inoculation to block sporozoite invasion of hepatocytes and the third at 36 hpi to prevent egress of liver stages (Fig 3A). In vivo bioluminescent imaging (IVIS) of mice was utilized to detect and quantify relative parasitemia in the liver and flow cytometry was used to detect the appearance of blood stage parasites. Vehicle-treated mice were used as a negative control.
# In vivo chemoprotective efficacy was evaluated using luciferase-expressing P. berghei ANKA sporozoites. […] Liver stage parasite burden was measured 42–48 h p.i. by bioluminescence imaging (IVIS Spectrum). Photon flux from the liver region was quantified using Living Image software. All animal procedures were approved by the Rutgers Institutional Animal Care and Use Committee (IACUC).
compound,measurement,setting,value
"C[C@@H]1CN(C)CC[C@@H]1c1cc(-c2ccncc2)c(-c2ccc(F)cc2)[nH]1.Cl.Cl [RUPB-61, 4-{5-[(3S,4S)-1,3-Dimethylpiperidin-4-yl]-2-(4-fluorophenyl)-1H-pyrrol-3-yl}pyridine Dihydrochloride]",IC50,P. falciparum 3D7,0.05 µM
same,IC50,P. falciparum 7G8,0.029 µM
same,IC50,P. falciparum TM90_C2B,0.139 µM
same,IC50,[1],0.079 µM
same,CC50 at 3 days,[2],> 20 µM
same,cytotoxicity against PHH,[3],no cytotoxicity
same,CC50 at 3 days,[4],> 20 µM
same,mice showing liver parasitemia as late as 144 hpi,"[5]; IV or PO, 10 mice, bioluminescent imaging",none
same,mice displaying blood stage parasites in the 3 week observation period,[5]; IV or oral,none
same,No. of mice patent by D21/ No. of mice inoculated,[5]; Intravenous,0/5
same,Prepatent period mean ± sd,[5]; Intravenous,negative
same,No. of mice patent by D21/ No. of mice inoculated,[5]; Oral,0/5
same,Prepatent period mean ± sd,[5]; Oral,negative
